Marks after values point to notes of the source that are not given here.
How the values were obtained:
[1] = system: Prenatally valproate-treated rats; experiment: Prenatal valproate model of ASD, social memory recognition paradigm; type: in vivo, rat; details: VPA rats; for social memory recognition active novelty contact time: mean ± S.E.M.; for social memory recognition % effect: VEH/VEH = 100%, VPA/VEH = 0%
Protocol: (§1) The Prenatal Valproate Model of Autism Spectrum Disorder (ASD) in Rats
(§2) The prenatal valproate model has excellent construct and face validity, thus it is a widely accepted animal model of ASD (Christensen et al, JAMA 2013, 309:1696-1703; Roullet et al, Neurotoxicol Teratol. 2013, 36:45-56). In this model, time-mated female Wistar rats (Harlan, UK) were treated with single-dose of valproic acid (VPA, i.p. 600 mg/kg) on 12.5 days of pregnancy. After birth and separation, the examined male offsprings were kept under standard laboratory conditions until completion of the studies. Four animals were kept together in standard cages at 22-24° C. external temperature and in 12-12 hour light-dark cycle (07.30 a.m.-07.30 p.m.). Food and water were available ad libitum. After once daily treatment with the test substance for 7 days and pretreatment on the day of measurement, the behaviour of the rats was assessed in the social preference test on the 59th or 60th postnatal day. The social preference test is a largely accepted test method for determining the autistic behaviour of rodents (Nadler et al, Genes Brain Behav 2004, 3:303-314; Bambini-Junior et al, Brain Res 2011, 1408:8-16). The test consists of two paradigms, the first is the social approach avoidance test. In this paradigm the social behaviour of examined animals can be determined with a special three-chamber apparatus. In the apparatus, the contact behaviour of the conspecific and empty separated area surrounded with a perforated wall can be examined and compared. […] One day later, on the 60th postnatal day, rats were tested in the social memory and recognition paradigm. In this, the contact behaviour with a new, previously unknown conspecific can be measured compared to a familiar conspecific.
Unexpectedly, the treatment reversed the value of VPA/VEH to the value of VEH/VEH treated animals.

[2] = system: Prenatally valproate-treated rats; experiment: Prenatal valproate model of ASD, social approach avoidance paradigm; type: in vivo, rat; details: VPA rats; for social approach avoidance active contact time: mean ± S.E.M.; for social approach avoidance % effect: VEH/VEH = 100%, VPA/VEH = 0%
Protocol: as §1, §2

[3] = molecular target: human vasopressin V2 receptor (Homo sapiens, UniProt P30518); experiment: Human vasopressin V2 receptor binding assay on 1321N1 cell line; details: for inhibition at 1 µM: read-out: inhibition % at 1 μM on hV2 1321N1 cell line; for Ki: 1321N1 cell line, read-out: Ki on hV2 1321N1 cell line
Protocol: Human Vasopressin V2 Receptor Binding Assay Cells and Radioligand
(§3) To determine the final affinity value, the results of at least two independent experiments were taken into account.
(§4) Non-specific binding values were determined in the presence of an unlabeled 1.2×10^−6 M (Arg^8)-vasopressin. Samples were incubated in a total volume of 0.55 ml for 90 minutes at 27° C. Membrane-bound and free ligands were separated by filtration through a 0.5% polyethyleneimine-impregnated UniFilter® GF/B™. After drying the filter plates, 40 μl Microscint-20 (Packard) scintillation cocktail was added to the samples. Finally, radioactivity was measured using MicroBeta^2 Microplate Counter (Perkin Elmer).
(§5) The radioligand displacement ability of a substance is determined in at least two independent experiments. Specific radioligand binding can be defined as the difference between total and non-specific binding in the presence of a saturation amount of the unlabeled ligand or different concentrations of the substance to be tested. The results are given as a percentage of inhibition of the specific binding achieved in the presence of the substance to be tested.
During fitting, the asymptotes are not fixed. The Ki values (inhibition constant) are given with Cheng-Prusoff equation Ki=IC50/[1+(L/KD)] wherein [L] is the radioligand concentration used in the experiment and [KD] is the affinity of the radioactively labelled ligand for the given receptor. The KD is determined beforehand using the Scatchard curve.

[4] = molecular target: T1, human vasopressin V1a receptor (Homo sapiens, UniProt P37288); experiment: Functional assay on human vasopressin V1a receptor expressing cell line (intracellular Ca2+ fluorescence); type: cell-based; details: 1321N1 cells, (Arg8)-vasopressin at EC80; read-out: IC50 (nM) on hV1a cell line
[5] = molecular target: T1, human vasopressin V1a receptor; experiment: Human vasopressin V1a receptor binding assay; details: 1321N1 cell membranes, [3H]vasopressin; read-out: Ki (nM) on hV1a cell line
Summary of the method: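 Ki values come from IC50 via Cheng-Prusoff (KD from prior Scatchard), averaged over at least two independent runs. Human V1a membranes were incubated with radioligand 60 minutes at 27° C., bound ligand collected by filtration; (Arg^8)-vasopressin at 1.2×10^−6 M defined non-specific binding.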

[6] = molecular target: mouse V1a receptor (Mus musculus, UniProt Q62463); experiment: Functional V1a in vivo test: inhibition of oxytocin-induced scratching behaviour; details: mice
Protocol: Functional V1a In Vivo Test
Male mice (NMRI, ToxiCoop) weighing 18-40 g were used. Animals were kept at least 5 days after delivery, during housing and measurements they were fed and drink ad libitum. The experiments were permitted by the Local Animal Protection Committee and carried out in accordance with the European Animal Protection Directives (EU Directive 2010/63/EU).
Animal behaviour was measured by an automated behavioral analysis system (LABORAS™). The sensors located below platforms detect the mechanical vibration generated by the movement of animal, and transform into an electrical signal (Quinn et al., J Neurosci Methods 2003, 130:83-92). After analyzing signals, the system analyzes the time spent with the following behavioral parameters: locomotion, immobility, climbing, grooming. The grooming algorithm by definition is able to measure the scratching behavioral response. During the experiment, mice were pretreated with the test substance or vehicle, and after the pretreatment period scratching-inducing compound (s.c. 0.3 mg/kg oxytocin) was administered, and then the animals were individually placed into measuring cages. […] To reduce the exploratory activity, the animals were measured after a 1-hour habituation to the cage. The behavioural parameters were compared to the parallel measured parameters of the control animals.
The behavioural inhibitory effect of the substances was calculated with average values of parallel measured vehicle treated groups and presented as the percentage of inhibition: 0% was expressed as average value of scratching behaviour of vehicle pretreated animals (and phys. saline s.c. pretreated with vehicle), while 100% was expressed as average value of scratching of vehicle pretreated animals that received oxytocin subcutaneously. For statistical analysis one-way analysis of variance (ANOVA) with Tukey post hoc test were used.

[7] = molecular target: mouse vasopressin V1a receptor (Mus musculus, UniProt Q62463); experiment: Mouse vasopressin V1a receptor binding assay; details: 1321N1 cell membranes; read-out: Ki (nM) on mV1a cell line
Description: Mouse Vasopressin V1a Receptor Binding Assay Cells and Radioligand
The immortalized 1321N1 cell line (B9/1321N1 clone) constitutively and stably expressing Mouse vasopressin V1a receptor vasopressin (8-L-Arginine), [Phenylalanyl-3,4,5-^3H(N)] labelled compound (Perkin Elmer Life and Analytical Sciences) as radioligand were used to determine the affinity of the prepared compounds.
Membrane-preparation: Membrane preparation of immortalized 1321N1 cells expressing the propagated mouse Vasopressin V1a receptor was made according to Jarvis's method (Jarvis et al., J Pharmacol Exp Ther […], 310:407-16). Cells were suspended in preparative buffer (50 mM Tris, 1 mM EDTA, 0.1 mM PMSF) and homogenized with glass homogenizing potter. To separate the raw membrane fraction two consecutive centrifugation procedures (40,000 g for 25 minutes at 4° C.) were executed, then the membrane was taken into the preparatory buffer during a final washing step, it was divided into aliquots which were stored at −80° C. until the time of measurement.
The protein content of the prepared membrane was determined according to Lowry's method using standard dilution line of bovine serum albumin (BSA) (Lowry et al., J Biol Chem 1951, 193:265-75).
as §3
as §4, with “0.33” for “0.55”, “60” for “90”, “GF/B™” for “GF/B™.”
as §5, with “clamping” for “displacement”
The IC50 data (i.e. the concentration of the unknown substance which displaces 50% of specific bound radioligand) is calculated from the concentration-displacement curve using the sigmoid fitting mathematical method y=(A1−A2)/(1+(x/x0)p)+A2 with Origin 7.5. software (OriginLab Corporation, Northampton, USA). During fitting, the asymptotes are not fixed. The Ki values (inhibition constant) are given with Cheng-Prusoff equation Ki=IC50/[1+(L/KD)] wherein [L] is the radioligand concentration used in the experiment and [KD] is the affinity of the radioactively labelled ligand for the given receptor. The KD is determined beforehand using the Scatchard curve.

[8] = after i.p. treatment (table title: 10 mg/kg)

mouse V1a receptor, sequence (Q62463 whole entry): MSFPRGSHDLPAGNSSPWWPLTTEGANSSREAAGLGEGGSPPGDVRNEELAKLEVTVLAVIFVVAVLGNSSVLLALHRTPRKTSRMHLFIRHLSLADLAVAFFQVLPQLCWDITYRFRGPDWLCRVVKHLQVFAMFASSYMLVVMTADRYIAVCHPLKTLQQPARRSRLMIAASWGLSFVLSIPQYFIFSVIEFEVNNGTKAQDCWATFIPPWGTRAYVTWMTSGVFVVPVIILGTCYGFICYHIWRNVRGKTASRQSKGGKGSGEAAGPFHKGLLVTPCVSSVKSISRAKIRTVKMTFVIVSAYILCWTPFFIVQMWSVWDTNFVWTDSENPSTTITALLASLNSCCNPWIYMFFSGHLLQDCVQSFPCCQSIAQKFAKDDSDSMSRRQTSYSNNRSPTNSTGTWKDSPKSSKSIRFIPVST
mouse vasopressin V1a receptor, sequence (Q62463 whole entry): as above
T1 sequence (P37288 whole entry): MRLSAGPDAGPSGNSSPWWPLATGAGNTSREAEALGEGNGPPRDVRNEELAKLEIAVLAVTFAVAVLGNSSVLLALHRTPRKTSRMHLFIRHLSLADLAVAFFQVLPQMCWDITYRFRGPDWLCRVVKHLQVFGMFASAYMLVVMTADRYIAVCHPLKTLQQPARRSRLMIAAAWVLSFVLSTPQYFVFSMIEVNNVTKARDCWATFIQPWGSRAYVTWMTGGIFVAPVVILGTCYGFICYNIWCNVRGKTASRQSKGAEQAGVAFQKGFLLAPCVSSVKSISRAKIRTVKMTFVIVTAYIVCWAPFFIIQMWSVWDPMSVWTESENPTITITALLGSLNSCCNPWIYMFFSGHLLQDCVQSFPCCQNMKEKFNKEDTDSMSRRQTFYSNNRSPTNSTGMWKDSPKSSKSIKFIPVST
human vasopressin V2 receptor, sequence (P30518 whole entry): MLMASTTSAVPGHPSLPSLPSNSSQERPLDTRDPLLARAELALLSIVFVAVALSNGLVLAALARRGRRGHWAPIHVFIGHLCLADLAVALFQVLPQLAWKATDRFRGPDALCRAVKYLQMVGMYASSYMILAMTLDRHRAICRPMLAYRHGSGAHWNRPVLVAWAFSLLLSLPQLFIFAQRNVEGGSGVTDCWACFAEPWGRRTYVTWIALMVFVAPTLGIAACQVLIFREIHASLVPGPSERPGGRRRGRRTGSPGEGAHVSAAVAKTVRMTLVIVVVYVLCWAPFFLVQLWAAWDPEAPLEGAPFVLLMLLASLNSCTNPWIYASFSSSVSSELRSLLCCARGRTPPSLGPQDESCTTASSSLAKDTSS

Row | inhibition at 1 µM [3] [%] | IC50 [4] [nM] | Ki [5] [nM] | Ki [7] [nM] | SMILES | further results
1 | 3 | 9 | 2 | – | NC1Cc2cc(Cl)ccc2-n2c(nnc2[C@H]2CC[C@H](Oc3ccccn3)CC2)C1 (stereo partly drawn) [Example 6, 8-chloro-1-[trans-4-(pyridin-2-yloxy)cyclohexyl]-5,6-dihydro-4H-[1,2,4]triazolo[4,3-a][1]benzazepine-5-amine] | –
2 | 35 | 4 | 0.7 | – | CNC1Cc2cc(Cl)ccc2-n2c(nnc2[C@H]2CC[C@H](Oc3ccccn3)CC2)C1 (stereo partly drawn) [Example 21, 8-chloro-N-methyl-1-[trans-4-(pyridin-2-yloxy)cyclohexyl]-5,6-dihydro-4H-[1,2,4]triazolo[4,3a][1]benzazepine-5-amine] | –
3 | – | 7 | 1 | 25 | CC(C)NC1Cc2cc(Cl)ccc2-n2c(nnc2[C@H]2CC[C@H](Oc3ccccn3)CC2)C1 (stereo partly drawn) [Example 24, 8-chloro-N-(propan-2-yl)-1-[trans-4-(pyridin-2-yloxy)cyclohexyl]-5,6-dihydro-4H-[1,2,4]triazolo[4,3-a][1]benzazepine-5-amine] | inhibition (%) of oxytocin-induced scratching behaviour response [6, 8]: 94* %
4 | – | 23 | 2.3 | 353 | CC(C)N[C@H]1Cc2cc(Cl)ccc2-n2c(nnc2[C@H]2CC[C@H](Oc3ccccn3)CC2)C1 [Example 25] | inhibition (%) of oxytocin-induced scratching behaviour response [6, 8]: 42* %
5 | – | 4.5 | 0.7 | 15 | CC(C)N[C@@H]1Cc2cc(Cl)ccc2-n2c(nnc2[C@H]2CC[C@H](Oc3ccccn3)CC2)C1 [Example 26] | social memory recognition active novelty contact time ([1]; 1.5 mg/kg i.p.): 83.7 ± 11.8 s; social memory recognition % effect ([1]; 1.5 mg/kg i.p.): 66%; social memory recognition active novelty contact time ([1]; 5 mg/kg i.p.): 133.5 ± 10.0 s; social memory recognition % effect ([1]; 5 mg/kg i.p.): 115%; social memory recognition active novelty contact time ([1]; 15 mg/kg i.p.): 141.9 ± 9.1 s; social memory recognition % effect ([1]; 15 mg/kg i.p.): 124%; social approach avoidance active contact time ([2]; 1.5 mg/kg i.p.): 71.2 ± 15.9 s; social approach avoidance % effect ([2]; 1.5 mg/kg i.p.): 30%; social approach avoidance active contact time ([2]; 5 mg/kg i.p.): 116.4 ± 22.5 s; social approach avoidance % effect ([2]; 5 mg/kg i.p.): 75%; social approach avoidance active contact time ([2]; 15 mg/kg i.p.): 148.7 ± 8.3 s; social approach avoidance % effect ([2]; 15 mg/kg i.p.): 107%

Second part, the molecule before the results:

Row | SMILES | inhibition at 1 µM [3] [%] | IC50 [4] [nM] | Ki [5] [nM] | Ki [7] [nM] | further results
6 | O=C(CCCCCCC(=O)Nc1ccccc1)NO [SAHA, suberoil anilide, reference compound] | – | – | – | – | social memory recognition active novelty contact time ([1]; 5 mg/kg i.p.): 155.5 ± 5.8 s; social memory recognition % effect ([1]; 5 mg/kg i.p.): 137%; active time spent with seeking response towards new animal ([1]; result in words): statistically significant increase; social approach avoidance active contact time ([2]; 5 mg/kg i.p.): 156.0 ± 6.7 s; social approach avoidance % effect ([2]; 5 mg/kg i.p.): 115%; time spent with social seeking response / social behaviour ([2]; result in words): statistically significant increase
7 | CN(C1Cc2cc(Cl)ccc2-n2c(nnc2[C@H]2CC[C@H](Oc3ccccn3)CC2)C1)S(C)(=O)=O (stereo partly drawn) [Example 19, N-{8-chloro-1-[trans-4-pyridin-2-loxcyclohexyl]-5,6-dihydro-4H-[1,2,4]triazolo[4,3-a][1]benzazepin-5-yl}-N-methylmethanesulfonamide] | – | 1.8 | 0.4 | – | Ki [3]: 610 nM
8 | Clc1ccc2c(c1)CC1(Cc3nnc([C@H]4CC[C@H](Oc5ccccn5)CC4)n3-2)OCCO1 [Example 53, 8′-chloro-1′-[trans-4-(pyridin-2-yloxy)cyclohexyl]-4′H,6′H-spiro[1,3-dioxolane-2,5′-[1,2,4]triazolo[4,3-a][1]benzazepine]] | – | – | – | 1.1 | inhibition (%) of oxytocin-induced scratching behaviour response ([6]; 10 mg/kg p.o. pretreatment): 118%
9 | CC(C)(C)OC(=O)NC1Cc2cc(Cl)ccc2-n2c(nnc2C2CCN(c3ccccn3)CC2)C1 (stereo not shown) [Example 1, Tert-butyl [8-chloro-1-[1-(pyridin-2-yl)piperidin-4-yl]-5,6-dihydro-4H-[1,2,4]triazolo[4,3-a][1]benzazepin-5-yl]carbamate] | 4 | 95 | 6 | – | –
10 | FC(F)(F)c1ccc2c(c1)CC1(Cc3nnc([C@H]4CC[C@H](Oc5ccccn5)CC4)n3-2)OCCO1 [Example 47] | – | 2.3 | 0.8 | – | Ki [3]: 366 nM

Reference: patent publication US11298363B2, “Triazolobenzazepines as vasopressin V1a receptor antagonists” (RICHTER GEDEON NYRT., priority 2017, dated 2022)
